Results reported in US5424424A, “Tartaric acid derivatives of substituted dibenzoxazepine compounds, pharmaceutical compositions and methods of use” (G. D. Searle & Co., priority 1993, dated 1995).
Structures can show the parent of a compound that is named as a salt.

Legend:
[1] = test system: prostaglandin E2-induced contractions of segments of guinea pig ileum; assay: Prostaglandin (PGE) Antagonism Assay in guinea pig ileum; format: tissue-based, Male albino guinea pigs; conditions: dose ratio of prostaglandin E2 EC50 values; initial concentration 3 micromolar test compound, 37° C., incubated thirty minutes
Method: In order to determine the effectiveness of several of the compounds of the present invention ("test compounds") as prostaglandin E2 antagonists,a prostaglandin antagonism assay was conducted, as described below, to determine the ability of these compounds to inhibit prostaglandin E2 -induced contractions of segments of guinea pig ileum.
Male albino guinea pigs weighing 200 to 500 grams were sacrificed by cervical dislocation. The ilea were then quickly removed from the guinea pigs and placed in a modified Tyrode solution, a solution which is known to those skilled in the art, containing one-half of the usual amount of magnesium ions.
Segments of ileum about 2 cm long were then cut and mounted in a 10 mL tissue bath containing the modified Tyrode solution. The solution was maintained at 37° C. and aerated with a gaseous mixture of 95% oxygen and 5% carbon dioxide. Data for a control prostaglandin E2 dose response curve plotting concentration of prostaglandin E2 versus the intensity of contractions, detected isotonically, was then obtained by experimentally adjusting the dose of the prostaglandin E2 being injected into the tissue bath, in a manner known by those of skill in the art.
Solutions or suspensions containing an initial concentration (3 micromolar) of a test compound in modified Tyrode solution ("test solutions/suspensions") were then separately substituted for the control bath solution. Each test solution/suspension was then kept in constant contact with the ileum tissue, except for brief periods to drain the bath in preparation for rinsing with fresh test solution/suspension. A second prostaglandin E2 dose response curve was then generated for prostaglandin E2 in the presence of a test compound.
A control dose response curve is produced in isolated segments of guinea pig ileum mounted in an automated apparatus with six concentrations of prostaglandin E2. A solution or suspension of test compound is substituted for the control bathing solution and is incubated for thirty minutes. An additional prostaglandin E2 dose response curve is then performed in the presence of the test compound. A dose ratio is calculated from the EC50 values obtained from duplicate replications on each concentration of the test compound.
A dose ratio of EC50 doses was calculated from the results of each test in a manner known by those of skill in the art, and described above.
The compounds of the present invention which were tested in this assay, and for which results are presented in Table 1, correspond to the particular examples specified in Table 1.

[2] = test system: mice; assay: Writhing Assay (phenylbenzoquinone-induced writhing, analgesia); format: in vivo, Charles River male albino mice; conditions: 30 mg per kilogram, intragastric, 30 minutes before PBQ i.p.; analgesia = writhes equal to or less than one-half the median of saline control
From the text: The Writhing Assay is one of the most widely-used experimental procedures for measuring the analgesic activity of different narcotic and nonnarcotic analgesic agents, and involves the continuous, chemically-induced pain of visceral origin to an animal, such as a mouse or rat. [Gyires et al., Arch. int. Pharmacodyn, 267, 131-140 (984); C. Vander Wende et al., Fed. Proc., 15, 494 (1956); Koster et al., Fed. Proc., 18, 412 (1959); and Witken et al., J. Pharmacol. exp. Ther., 133, 400-408 (1961).] Chemicals which may be used to induce this pain include phenylbenzoquinone (PBQ) and acetic acid. As a result of the chemical irritation to the animal, a characteristic stretching and writhing of the animal (dorsiflexion of the animal's back, extension of its hindlimbs and the strong contraction of its abdominal musculature) will generally occur. […] Drugs which reduce the number of writhes of the animal appear to restore the normal nociceptive threshold of the animal.
Charles River male albino mice, weighing 20 to 30 grams, were used in this assay.
Thirty minutes after intragastric administration to ten mice of 30 mg per kilogram of body weight of a compound of the present invention ("test compound"), […] per 10 g of body weight of a 0.025% w/v solution of PB was injected intraperitoneally into each mouse. Ten mice which were given saline in place of a test compound of the invention were used as a control group.
Five minutes later, each mouse was individually placed into a glass beaker for observation, and the number of writhes occurring during the following ten-minute period was counted.
A test compound was considered to have produced analgesia in a mouse if, in accordance with the conditions set forth above, and under the test criteria employed for this assay, after the administration of 30 mg per kilogram of body weight of a compound of the present invention to the mouse, the number of writhes elicited by a mouse injected with PBQ was equal to, or less than, one-half the median number of writhes recorded for the saline-treated control group of mice that day, as described by Taber in "Predictive Value of Analgesic Assays in Mice and Rats," Advances in Biochemical Psychopharmacology, 8, 191 (1974).
The results for the particular compounds of the present invention analyzed in this assay, and discussed in the examples identified below which correspond thereto, are presented in Table 1 hereinbelow as fractions under the heading "WRITHING ASSAY." The fractions indicate the number of mice out of ten in which a test compound produced analgesia.

SMILES	PGE ANTAGONISM IN GUINEA PIG ILEUM Dose Ratio [1]	WRITHING ASSAY I.G.: number of mice out of ten in which a test compound produced analgesia [2]
CC(=O)O[C@H](C(=O)NCc1cccnc1)[C@H](OC(C)=O)C(=O)N1Cc2ccccc2Oc2ccc(Cl)cc21 [Example 4, αS,βS-Bis(acetyloxy)-8-chloro-γ-oxo-N-(3-pyridinylmethyl)-dibenz[b,f][1,4]oxazepine-10(11H)-butanamide, hydrochloride]	0.74	9/10
CC(=O)O[C@H](C(=O)NCc1ccccn1)[C@H](OC(C)=O)C(=O)N1Cc2ccccc2Oc2ccc(Cl)cc21 [Example 5, αS,βS-Bis(acetyloxy)-8-chloro-γ-oxo-N-(2-pyridinylmethyl)dibenz[b,f][1,4]oxazepine-10(11H)-butanamide, hydrochloride]	1.7	5/10
CC(=O)O[C@@H](C(=O)NCc1cccnc1)[C@@H](OC(C)=O)C(=O)N1Cc2ccccc2Oc2ccc(Cl)cc21 [Example 8, αR,βR-Bis(acetyloxy)-8-chloro-γ-oxo-N-(3-pyridinylmethyl)dibenz[b,f][1,4]oxazepine-10(11H)]-butanamide, hydrochloride]	2.4	6/10
CC(=O)O[C@@H](C(=O)NCc1ccccn1)[C@@H](OC(C)=O)C(=O)N1Cc2ccccc2Oc2ccc(Cl)cc21 [Example 9, αR,βR-Bis(acetyloxy)-8-chloro-γ-oxo-N-(2-pyridinylmethyl)dibenz[b,f][1,4]oxazepine-10(11H)-butanamide, hydrochloride]	1.1	5/10
CC(=O)O[C@H](C(=O)NCc1ccncc1)[C@H](OC(C)=O)C(=O)N1Cc2ccccc2Oc2ccc(Cl)cc21 [Example 3, αS,βS-Bis(acetyloxy)-8-chloro-γ-oxo-N-(4-pyridinylmethyl)-dibenz[b,f][1,4]oxazepine-10(11H)-butanamide, hydrochloride]	1.3	5/10
CC(=O)O[C@H](C(=O)NCCN(C)C)[C@H](OC(C)=O)C(=O)N1Cc2ccccc2Oc2ccc(Cl)cc21 [Example 2, αS,βS-Bis(acetyloxy)-8-chloro-N-[2-(dimethylamino)ethyl]-γ-oxodibenz[b,f][1,4]oxazepine-10(11H)-butanamide, monohydrochloride]		0/10
CC(=O)O[C@@H](C(=O)NCc1ccncc1)[C@@H](OC(C)=O)C(=O)N1Cc2ccccc2Oc2ccc(Cl)cc21 [Example 7, αR,βR-Bis(acetyloxy)-8-chloro-γ-oxo-N-(4-pyridinylmethyl)dibenz[b,f][1,4]oxazepine-10(11H)-butanamide, hydrochloride]	1.2	8/10
